We go through 7 compounds from patent publication US7687609B2, “Galectin-glycosaminoglycan complex and method for controlling galectin activity” (National Institute of Advanced Industrial Science and …, priority 2006, dated 2010).

Experiment [1] deals with T1, Galectin-3 (Homo sapiens, UniProt P17931).
T1 construct: made in house
Nature of the experiment: FAC competitive inhibition test, binding of galectin-3 with LNnT. The settings on record: 5.0 nM PA-LNnT; for V2 − V0: V1 − V0 30.6 μl. The protocol: (§1) A model test on a competitive inhibition was carried out by FAC, in which binding of a galectin molecule with a carbohydrate which binds to the galectin molecule is inhibited by a glycosaminoglycan molecule. The FAC was carried out in accordance with the above-described example (1). In addition, as a model carbohydrate which is known to be bound to the galectin molecule, a pyridylamination product of lacto-N-neotetraose (LNnT hereinafter, Gal β1-4 GlcNAc β1-3 Gal β1-4 Glc, purchased from Seikagaku Corporation) was used.
(§2) In the test, 5.0 nM in final concentration of PA-LNnT sample solution was mixed with various concentration of glycosaminoglycan molecule (not pyridyl-aminated, namely an inhibitory carbohydrate) to measure the eluate volume (V2 value) by FAC, and the inhibition ratio (%) was calculated as follows from the eluate volume (V1 value) before the mixing and the eluate volume (V0 value) of a negative control sample. Inhibition ratio (%)=100×(V1−V2)/(V1−V0) Formula 1
(§3) In this connection, the unlabeled (not pyridyl-aminated) CH4, CH6, CH10, HA4 and CSA4 were respectively prepared at Seikagaku Corporation in accordance with a conventionally known method.

Experiment [2] has as its target T2, Galectin-9N (Homo sapiens, UniProt O00182).
T2 construct: N and C respectively represent N-terminal side carbohydrate-recognition domain and C-terminal side carbohydrate-recognition domain; made in house
As to the kind of experiment: FAC competitive inhibition test, binding of galectin-9N with LNnT. The settings on record: for Inhibition ratio / V2 − V0: 5.0 nM PA-LNnT; for V2 − V0: V1 − V0 20.3 μl. The protocol:
as §1, §2, §3

Experiment [3] addresses T1, Galectin-3. Nature of the experiment: FAC affinity test on galectin-immobilized column. The note with it: pyridyl-aminated carbohydrate; galectin-3 immobilized 0.5 mg/ml; less than 5 μl = below interaction detection limit. The class given is binding. The protocol:
(§4) Various galectin molecules-immobilized columns were prepared by the method described by Nakamura S, Yagi F, Totani K, Ito γ and Hirabayashi J in FEBS J., 272, 2784-2799 (2005), using NHS Sepharose (manufactured by Amersham Bioscience) as the carrier for immobilizing galectin molecules and in accordance with the instructions attached thereto (put in parentheses is immobilization concentration, mg galectin/ml carrier).
(§5) Each galectin molecule was immobilized onto the carrier at the following concentration; galectin-1 (0.8 mg/ml), galectin-3 (0.5 mg/ml), galectin-8N (3.6 mg/ml), galectin-8C (4.0 mg/ml), galectin-9N (3.6 mg/ml), galectin-9C (3.0 mg/ml). The carrier on which each galectin was immobilized was charged into a stainless steel miniature column (2 mm in inner diameter, 10 mm in length; manufactured by Shimadzu Corp.).
(§6) A high performance liquid chromatography (HPLC) system was equipped with a galectin molecule-immobilized column, and the test was carried out by the method described in Nakamura S, Yagi F, Totani K, Ito γ and Hirabayashi J in FEBS J., 272, 2784-2799 (2005).
(§7) As the negative control sample, pyridyl-aminated N-acetylglucosamine (PA-GlcNAc, manufactured by Takara Bio, pyridyl-aminated glycosaminoglycan-oligosaccharide sample control) or pyridyl-aminated pullulan (prepared by carrying out pyridylamination of standard pullulan manufactured by Shodex, pyridyl-aminated glycosaminoglycan polysaccharide sample control) was used, and a V−V0 value was calculated from their eluate volume (V0 value) measured by fluorescence detection and the eluate volume (V value) of the sample, namely pyridyl-aminated glycosaminoglycan carbohydrate, and this was used as the index of interaction strength (Protein, Nucleic Acid and Enzyme, 48(8), 1206-1212 (2003)).
(§8) V−V0 values of pyridyl-aminated glycosaminoglycans (HA, CH, DN, NAH, CSA, CSB, CSC, CSD, CSE, KS-I and KS-II) were calculated based on PA-GlcNAc, and V−V0 values of pyridyl-aminated glycosaminoglycan-oligosaccharides (G2K1, G1L1, G4L4, L2L2, L2L4, L4L4, SL2L4 and CH3 to CH12) based on pyridyl-aminated pullulan, respectively.
(§9) In this connection, when the calculated value of the V−V0 value was less than 5 μl, it was regarded as less than the interaction detection limit in this example.

The target of experiment [4] is T2, Galectin-9N. As to the kind of experiment: FAC affinity test on galectin-immobilized column. The class given is binding. The settings on record: pyridyl-aminated carbohydrate; galectin-9N immobilized 3.6 mg/ml; less than 5 μl = below interaction detection limit. The protocol: as §4, §5, §6, §7, §8, §9
In another experiment the target is T3, Galectin-1 (Homo sapiens, UniProt P09382).
T3 construct: made in house
T3 sequence (P09382 whole entry): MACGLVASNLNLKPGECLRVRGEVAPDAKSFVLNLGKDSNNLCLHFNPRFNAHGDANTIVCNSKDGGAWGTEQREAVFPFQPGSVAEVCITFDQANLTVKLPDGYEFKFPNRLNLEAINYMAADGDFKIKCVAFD
Nature of the experiment: FAC affinity test on galectin-immobilized column. The class given is binding. The settings on record: pyridyl-aminated carbohydrate; galectin-1 immobilized 0.8 mg/ml; less than 5 μl = below interaction detection limit. The protocol:
as §4, §5, §6, §7, §8, §9

The next experiment addresses T4, Galectin-9C (Homo sapiens, UniProt O00182).
T4 construct: N and C respectively represent N-terminal side carbohydrate-recognition domain and C-terminal side carbohydrate-recognition domain; made in house
Nature of the experiment: FAC affinity test on galectin-immobilized column. The class given is binding. The note with it: pyridyl-aminated carbohydrate; galectin-9C immobilized 3.0 mg/ml; less than 5 μl = below interaction detection limit. The protocol:
as §4, §5, §6, §7, §8, §9

The test system of experiment [5] is tested galectin molecules (galectin-1, 3, 8N, 8C, 9N and 9C). As to the kind of experiment: FAC affinity test, statements on the whole panel of tested galectins. It is filed as binding. The settings on record: Table 3, whole galectin panel.
Excerpt: Using FAC, the present inventors have conducted a comprehensive analysis of the interactions between various galectin molecules (galectin-1, 3, 8N, 8C, 9N and 9C; N and C respectively represent N-terminal side carbohydrate-recognition domain and C-terminal side carbohydrate-recognition domain)-immobilized columns and various fluorescence-labeled glycosaminoglycan molecules. As a result, novel affinity was found by the combination of specific galectin molecules and glycosaminoglycan molecules to thereby accomplish the present invention.
as §6, §7, §9

Another experiment concerns the target T5, Galectin-8N (Homo sapiens, UniProt O00214).
T5 construct: N and C respectively represent N-terminal side carbohydrate-recognition domain and C-terminal side carbohydrate-recognition domain; made in house
T5 sequence (O00214 19-152 limits assumed): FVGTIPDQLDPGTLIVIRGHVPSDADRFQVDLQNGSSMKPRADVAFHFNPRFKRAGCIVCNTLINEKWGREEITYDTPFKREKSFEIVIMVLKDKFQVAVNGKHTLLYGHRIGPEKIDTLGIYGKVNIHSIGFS
Nature of the experiment: FAC affinity test on galectin-immobilized column. It is filed as binding. The note with it: pyridyl-aminated carbohydrate; galectin-8N immobilized 3.6 mg/ml; less than 5 μl = below interaction detection limit. The protocol:
as §4, §5, §6, §7, §8, §9

Another experiment has as its target T6, Galectin-8C (Homo sapiens, UniProt O00214).
T6 construct: N and C respectively represent N-terminal side carbohydrate-recognition domain and C-terminal side carbohydrate-recognition domain; made in house
T6 sequence (O00214 187-317 limits assumed): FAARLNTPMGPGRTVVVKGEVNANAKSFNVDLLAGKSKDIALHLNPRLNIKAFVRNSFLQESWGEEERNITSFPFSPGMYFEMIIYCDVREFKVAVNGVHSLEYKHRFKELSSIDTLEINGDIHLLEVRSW
As to the kind of experiment: FAC affinity test on galectin-immobilized column. The class given is binding. The settings on record: pyridyl-aminated carbohydrate; galectin-8C immobilized 4.0 mg/ml; less than 5 μl = below interaction detection limit. The method, then: as §4, §5, §6, §7, §8, §9

Setting [6] is: final conc. 10 μM unlabeled inhibitor.
Setting [7] is: final conc. 50 μM unlabeled inhibitor.
The mark [8] stands for this setting: final conc. 250 μM unlabeled inhibitor.
Where [9] appears, read: final conc. 1 μM unlabeled inhibitor.
The mark [10] stands for this setting: final conc. 5 μM unlabeled inhibitor.

T2 sequence (O00182 17-148 limits assumed): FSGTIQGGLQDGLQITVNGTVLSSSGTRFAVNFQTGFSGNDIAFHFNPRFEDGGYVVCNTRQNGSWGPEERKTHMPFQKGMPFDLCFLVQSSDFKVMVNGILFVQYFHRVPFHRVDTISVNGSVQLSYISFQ
T1 sequence (P17931 whole entry): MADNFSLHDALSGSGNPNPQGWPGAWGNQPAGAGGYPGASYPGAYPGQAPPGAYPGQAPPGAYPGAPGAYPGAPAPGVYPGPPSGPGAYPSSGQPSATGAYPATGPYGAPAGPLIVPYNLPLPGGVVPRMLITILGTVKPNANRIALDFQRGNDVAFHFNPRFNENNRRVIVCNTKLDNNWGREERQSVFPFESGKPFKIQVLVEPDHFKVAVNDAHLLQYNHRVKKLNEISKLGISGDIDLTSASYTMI
T4 sequence (O00182 227-355 limits assumed): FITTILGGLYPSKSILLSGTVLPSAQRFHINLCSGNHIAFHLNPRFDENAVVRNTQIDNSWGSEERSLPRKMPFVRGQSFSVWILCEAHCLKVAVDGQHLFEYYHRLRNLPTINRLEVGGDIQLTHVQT

Consider `CC(=O)N[C@H]1[C@H](O[C@H]2[C@H](O)[C@@H](O)[C@H](O[C@H]3[C@@H](O)[C@@H](CO)OC(O)[C@@H]3NC(C)=O)O[C@@H]2C(=O)O)O[C@H](CO)[C@H](O)[C@@H]1O[C@@H]1O[C@H](C(=O)O)[C@@H](O)[C@H](O)[C@H]1O` (stereo partly drawn) [CH4, GlcA β1-3 GalNAc β1-4 GlcA β1-3 GalNAc], for which the Inhibition ratio was determined as 12.7% at Galectin-3 [1] (setting [6]); 32.0% on Galectin-3 [1] (setting [7]); 48.0% on Galectin-3 [1] (setting [8]); 16.7% at Galectin-9N [2] (setting [9]); 26.1% at Galectin-9N [2] (setting [10]); 32.5% on Galectin-9N [2] (setting [6]). In addition, the Inhibition ratio at Galectin-9N [2] (setting [7]) stood at 71.4%. Moreover, the “V2 − V0” value worked out at 26.7 µL at Galectin-3 [1] (setting [6]); 20.8 µL at Galectin-3 [1] (setting [7]); 15.9 µL on Galectin-3 [1] (setting [8]); 16.9 µL on Galectin-9N [2] (setting [9]); 15.0 µL on Galectin-9N [2] (setting [10]); 13.7 µL at Galectin-9N [2] (setting [6]). Further, the “V2 − V0” value on Galectin-9N [2] (setting [7]) was 5.8 µL. Moreover, the “inhibition of binding of galectin-9N with LNnT (in words)” value at Galectin-9N [2] (Table 5) was “inhibited by CH4 concentration-dependently”. In addition, the entries for the “V − V0 Value” on Galectin-3 [3], on Galectin-9N [4] and on Galectin-1 were under 5.0 µL, 45.3 ± 4.8 µL and under 5.0 µL, respectively.

For `CC(=O)N[C@H]1[C@H](O[C@H]2[C@H](O)[C@@H](O)[C@H](O[C@H]3[C@@H](O)[C@@H](CO)O[C@@H](O[C@H]4[C@H](O)[C@@H](O)[C@H](O[C@H]5[C@@H](O)[C@@H](CO)OC(O)[C@@H]5NC(C)=O)O[C@@H]4C(=O)O)[C@@H]3NC(C)=O)O[C@@H]2C(=O)O)O[C@H](CO)[C@H](O)[C@@H]1O[C@@H]1O[C@H](C(=O)O)[C@@H](O)[C@H](O)[C@H]1O` (stereo partly drawn) [CH6, GlcA β1-3 (GalNAc β1-4 GlcA β1-3)2 GalNAc], at Galectin-3 [1] (setting [6]), the Inhibition ratio is listed as 5.2%. Further, on Galectin-3 [1] (setting [6]), the “V2 − V0” value came out at 29.0 µL. Also, the “V − V0 Value” at Galectin-3 [3] was 5.8 ± 1.4 µL; at Galectin-9N [4], 33.3 ± 3.0 µL; at Galectin-1 it was under 5.0 µL; on Galectin-9C it was under 5.0 µL.

Consider `CC(=O)N[C@H]1[C@H](O[C@H]2[C@H](O)[C@@H](O)[C@H](O[C@H]3[C@@H](O)[C@@H](CO)O[C@@H](O[C@H]4[C@H](O)[C@@H](O)[C@H](O[C@H]5[C@@H](O)[C@@H](CO)O[C@@H](O[C@H]6[C@H](O)[C@@H](O)[C@H](O[C@H]7[C@@H](O)[C@@H](CO)O[C@@H](O[C@H]8[C@H](O)[C@@H](O)[C@H](O[C@H]9[C@@H](O)[C@@H](CO)OC(O)[C@@H]9NC(C)=O)O[C@@H]8C(=O)O)[C@@H]7NC(C)=O)O[C@@H]6C(=O)O)[C@@H]5NC(C)=O)O[C@@H]4C(=O)O)[C@@H]3NC(C)=O)O[C@@H]2C(=O)O)O[C@H](CO)[C@H](O)[C@@H]1O[C@@H]1O[C@H](C(=O)O)[C@@H](O)[C@H](O)[C@H]1O` (stereo partly drawn) [CH10, GlcA β1-3 (GalNAc β1-4 GlcA β1-3)4 GalNAc], for which, on Galectin-3 [1] (setting [6]), the Inhibition ratio is 38.2%. The “V2 − V0” value at Galectin-3 [1] (setting [6]) was found to be 18.9 µL. Moreover, the “V − V0 Value” at Galectin-3 [3] is 11.8 ± 3.3 µL; on Galectin-9N [4] it was 171.5 µL; on Galectin-1 it was under 5.0 µL; on Galectin-9C it was under 5.0 µL.

On to “chondroitin sulfate C [CSC, reference compound]”, for which the “binding to the tested galectin molecules (in words)” value in experiment [5] was “did not bind”. The “V − V0 Value” on Galectin-3 [3], at Galectin-9N [4], on Galectin-1, at Galectin-8N, on Galectin-8C and on Galectin-9C was under 5.0 µL throughout.

Turning to “chondroitin sulfate D [CSD, reference compound]”, in [5], the “binding to the tested galectin molecules (in words)” value is “did not bind”. For the same compound, the “V − V0 Value” at Galectin-3 [3], at Galectin-9N [4], at Galectin-1, on Galectin-8N, at Galectin-8C and at Galectin-9C was under 5.0 µL each time.

For the compound “chondroitin sulfate E [CSE, reference compound]”, the “binding to the tested galectin molecules (in words)” value in experiment [5] is given as “did not bind”. Also, the “V − V0 Value” on Galectin-3 [3], at Galectin-9N [4], at Galectin-1, at Galectin-8N, at Galectin-8C and at Galectin-9C was under 5.0 µL throughout.

For “dermatan sulfate [CSB, reference compound]”, the “binding to the tested galectin molecules (in words)” value in [5] is “did not bind”. The “V − V0 Value” on Galectin-3 [3], on Galectin-9N [4], on Galectin-1, at Galectin-8N, at Galectin-8C and on Galectin-9C was under 5.0 µL in each case.
